Results as given in PMC6425606 (Journal for Immunotherapy of Cancer, 2019).
Read-outs that look alike come from different tables or passages of the source.

Assays:
[1] = set-up: method as in PMID 28053021; conditions: epacadostat monotherapy 300 mg BID, patients with advanced malignancies; cited from earlier work
[2] = Epacadostat plasma pharmacokinetics (LC-MS/MS, noncompartmental analysis); assay type: in vivo, human
Description: SAS® software, version 9.4 (SAS Institute Inc., Cary, NC) was used to generate all tables, graphs, and statistical analyses. […] Descriptive statistics were used to present summaries of continuous and categorical variables. Survival data (OS, PFS) were analyzed using the nonparametric Kaplan-Meier method.
Thirty-six patients were evaluable for pharmacokinetic analyses. […] Steady-state pharmacokinetic observations (Cycle 1, Day 10) are summarized in Additional file 1: Table S3.

[3] = tested on: untreated melanoma; conditions: human, in vivo; cited from earlier work
[4] = tested on: metastatic melanoma; set-up: method as in PMID 20525992, PMID 27622997, PMID 26027431; conditions: ipilimumab monotherapy, previously treated patients; cited from earlier work
[5] = epacadostat 25 mg BID (n=10), steady state Cycle 1 Day 10
[6] = epacadostat 50 mg BID continuous (n=13), steady state Cycle 1 Day 10
[7] = epacadostat 50 mg BID intermittent (n=7), steady state Cycle 1 Day 10
[8] = epacadostat 300 mg BID (n=6), steady state Cycle 1 Day 10

NS(=O)(=O)NCCNc1nonc1C(=NO)Nc1ccc(F)c(Br)c1 [epacadostat]
Geometric mean AUC [1]: 9.8 µM·h | Increase of pharmacokinetic exposures (Cmax, AUC0–12h) with dose ([2]; between 25 mg BID and 300 mg BID): dose-proportional | CL/F, geometric mean [2, 5]: 61.3 L/h | CL/F, mean ± SD [2, 5]: 68.9 ± 32.1 L/h | Cmin, mean ± SD [2, 5]: 30 ± 30 nM | CL/F, geometric mean [2, 6]: 64.2 L/h | CL/F, mean ± SD [2, 6]: 69.7 ± 29.8 L/h | Cmin, mean ± SD [2, 6]: 60 ± 50 nM | tmax, median [2, 6]: 2.0 h | Cmax ([2]; epacadostat 50 mg BID continuous (n=13), steady state Cycle 1 Day 10, read-out: Cmax, geometric mean): 400 nM | Cmax ([2]; epacadostat 50 mg BID continuous (n=13), steady state Cycle 1 Day 10, read-out: Cmax, mean ± SD): 500 ± 200 nM | CL/F, geometric mean [2, 7]: 54.4 L/h | CL/F, mean ± SD [2, 7]: 57.6 ± 21.7 L/h | Cmin, mean ± SD [2, 7]: 60 ± 40 nM | Cmax ([2]; epacadostat 50 mg BID intermittent (n=7), steady state Cycle 1 Day 10, read-out: Cmax, geometric mean): 500 nM | CL/F, geometric mean [2, 8]: 74.8 L/h | CL/F, mean ± SD [2, 8]: 77.6 ± 22.2 L/h | Cmin, geometric mean [2, 8]: 200 nM | Cmin, mean ± SD [2, 8]: 300 ± 200 nM | AUC(0-t) ([2]; human, plasma, oral, 25 mg, epacadostat 25 mg BID (n=10), steady state Cycle 1 Day 10, read-out: AUC0–12h, geometric mean): 0.9 µM·h | AUC(0-t) ([2]; human, plasma, oral, 25 mg, epacadostat 25 mg BID (n=10), steady state Cycle 1 Day 10, read-out: AUC0–12h, mean ± SD): 1.1 ± 0.7 µM·h | half-life ([2]; human, plasma, oral, 25 mg, epacadostat 25 mg BID (n=10), steady state Cycle 1 Day 10, read-out: t½, geometric mean (converted)): 7.4 h | half-life ([2]; human, plasma, oral, 25 mg, epacadostat 25 mg BID (n=10), steady state Cycle 1 Day 10, read-out: t½, mean ± SD (converted)): 9.1 ± 6.1 h | AUC(0-t) ([2]; human, plasma, oral, 50 mg, epacadostat 50 mg BID continuous (n=13), steady state Cycle 1 Day 10, read-out: AUC0–12h, geometric mean): 1.8 µM·h | AUC(0-t) ([2]; human, plasma, oral, 50 mg, epacadostat 50 mg BID continuous (n=13), steady state Cycle 1 Day 10, read-out: AUC0–12h, mean ± SD): 1.9 ± 0.8 µM·h | half-life ([2]; human, plasma, oral, 50 mg, epacadostat 50 mg BID continuous (n=13), steady state Cycle 1 Day 10, read-out: t½, geometric mean (converted)): 5.9 h | half-life ([2]; human, plasma, oral, 50 mg, epacadostat 50 mg BID continuous (n=13), steady state Cycle 1 Day 10, read-out: t½, mean ± SD (converted)): 7.1 ± 5.5 h | AUC(0-t) ([2]; human, plasma, oral, 50 mg, epacadostat 50 mg BID intermittent (n=7), steady state Cycle 1 Day 10, read-out: AUC0–12h, geometric mean): 2.1 µM·h | AUC(0-t) ([2]; human, plasma, oral, 50 mg, epacadostat 50 mg BID intermittent (n=7), steady state Cycle 1 Day 10, read-out: AUC0–12h, mean ± SD): 2.2 ± 0.7 µM·h | half-life ([2]; human, plasma, oral, 50 mg, epacadostat 50 mg BID intermittent (n=7), steady state Cycle 1 Day 10, read-out: t½, geometric mean (converted)): 4.5 h | half-life ([2]; human, plasma, oral, 50 mg, epacadostat 50 mg BID intermittent (n=7), steady state Cycle 1 Day 10, read-out: t½, mean ± SD (converted)): 5.1 ± 2.9 h | AUC(0-t) ([2]; human, plasma, oral, 300 mg, epacadostat 300 mg BID (n=6), steady state Cycle 1 Day 10, read-out: AUC0–12h, geometric mean): 9.2 µM·h | AUC(0-t) ([2]; human, plasma, oral, 300 mg, epacadostat 300 mg BID (n=6), steady state Cycle 1 Day 10, read-out: AUC0–12h, mean ± SD): 9.5 ± 3 µM·h | half-life ([2]; human, plasma, oral, 300 mg, epacadostat 300 mg BID (n=6), steady state Cycle 1 Day 10, read-out: t½, geometric mean (converted)): 5.4 h | half-life ([2]; human, plasma, oral, 300 mg, epacadostat 300 mg BID (n=6), steady state Cycle 1 Day 10, read-out: t½, mean ± SD (converted)): 6.2 ± 3.5 h | half-life ([2]; human, plasma, po, repeat oral doses of 25 mg BID, 50 mg BID, 50 mg BID intermittent, 300 mg BID, read-out: Mean terminal elimination half-life (t½)): 5 to 9 h | Tmax ([2]; human, plasma, repeat oral doses of 25 mg BID, 50 mg BID, 50 mg BID intermittent, 300 mg BID, read-out: Median time of maximum observed concentration (tmax)): ~2 h

ipilimumab: anti-CTLA-4 antibody, immune checkpoint inhibitor
Patients with grade 3/4 treatment-emergent AEs [3]: 56% | Rate of irAEs (grade 3/4) [3]: 19% | Overall response rate [4]: 11%
